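How tested: cells in 96-well plates exposed to compound for 48 hours at five concentrations. GI50 is the concentration that inhibits growth by half. TGI marks complete inhibition of growth.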
Columns and labels:
Experiment in all cases: inhibition of tumour cell growth, NCI panel, 48 h
K-562 leukemia = system: K-562 leukemia
MALME-3M melanoma = system: MALME-3M melanoma
MOLT-4 leukemia = system: MOLT-4 leukemia
NCI-H522 lung = system: NCI-H522 lung
RPMI-8226 leukemia = system: RPMI-8226 leukemia
SF-539 CNS = system: SF-539 CNS
SK-MEL-28 melanoma = system: SK-MEL-28 melanoma
SNB-75 CNS = system: SNB-75 CNS
UACC-257 melanoma = system: UACC-257 melanoma
NCI/ADR-RES ovarian = system: NCI/ADR-RES ovarian

Row | SMILES | TGI (K-562 leukemia) [µM] | TGI (MALME-3M melanoma) [µM] | TGI (MOLT-4 leukemia) [µM] | TGI (NCI-H522 lung) [µM] | TGI (RPMI-8226 leukemia) [µM] | TGI (SF-539 CNS) [µM] | TGI (SK-MEL-28 melanoma) [µM] | TGI (SNB-75 CNS) [µM] | TGI (UACC-257 melanoma) [µM] | GI50 (K-562 leukemia) [µM] | GI50 (MALME-3M melanoma) [µM] | GI50 (MOLT-4 leukemia) [µM] | GI50 (NCI-H522 lung) [µM] | GI50 (RPMI-8226 leukemia) [µM] | GI50 (SF-539 CNS) [µM] | GI50 (SK-MEL-28 melanoma) [µM] | GI50 (SNB-75 CNS) [µM] | GI50 (UACC-257 melanoma) [µM] | GI50 (NCI/ADR-RES ovarian) [µM] | TGI (NCI/ADR-RES ovarian) [µM]
1 | Cc1nc2ccccc2nc1CC(=O)C(=O)Nc1ccc(Cl)cc1Cl | > 100 | > 100 | > 100 | > 100 | > 100 | > 100 | > 100 | > 100 | > 100 |  |  |  |  |  |  |  |  |  |  | 
2 | COc1cc(Nc2cnc3ccc(C(F)(F)F)cc3n2)cc(OC)c1OC |  | > 100 | > 100 |  | > 100 | > 100 | > 100 |  | > 100 |  |  |  |  |  |  |  |  |  |  | 
3 | O=C1[C@@H]2C(c3c(Cl)cccc3Cl)=NO[C@@H]2C(=O)N1c1ccc(Cc2ccc(N3C(=O)[C@H]4C(c5c(Cl)cccc5Cl)=NO[C@H]4C3=O)cc2)cc1 | > 100 | > 100 | > 100 |  | > 100 | > 100 | > 100 | > 100 | > 100 |  |  |  |  |  |  |  |  |  |  | 
4 | COc1ccc2sc3c(NCCCN)nc4ccccc4c3c(=O)c2c1 | 3.4 | 3.32 | 3.17 | 3.49 | 3.89 | 3.17 | 3.28 | 2.72 | 3.88 | 1.11 | 1.78 | 1.48 | 1.63 | 1.85 | 1.75 | 1.8 | 1.38 | 1.91 |  | 
5 | O=C1NC2=C(CCCCC/C2=N\O)C12CCCCCC2 | > 100 | > 100 | > 100 | > 100 | > 100 | > 100 | > 100 | > 100 | > 100 |  |  |  |  |  |  |  |  |  |  | 
6 | CCc1cccc(C)c1NC(=O)CCc1nc(=S)[nH][nH]1 | > 100 | > 100 | > 100 | > 100 | > 100 | > 100 | > 100 |  | > 100 |  |  |  |  |  |  |  |  |  |  | 
7 | CCN(CC)Cc1cc(Nc2nc(NC3CCC(N(C)C)CC3)c3ccccc3n2)ccc1OC (configuration not stated) | 5.23 | 3.73 | 6.9 | 6.96 | 6.63 | 13.3 | 5.17 | 17.5 | 3.84 | 1.98 | 1.61 | 2.34 | 2.45 | 2.34 | 3.3 | 2.41 | 2.17 | 1.82 |  | 
8 | N#C/C(=C\c1cc(OCc2ccccc2)c(OCc2ccccc2)cn1)C(N)=O | > 100 | > 100 | 52.4 | 41.2 | > 100 | > 100 | > 100 | > 100 | > 100 |  |  |  |  |  |  |  |  |  |  | 
9 | N#CC(C(=O)C(=O)Nc1c(Cl)cccc1Cl)c1ccccc1 (configuration not stated) | > 100 | > 100 | > 100 |  | > 100 | > 100 | > 100 | > 100 |  | > 100 | > 100 | > 100 |  | > 100 | > 100 | > 100 | > 100 |  |  | 
10 | COC(=O)C1C(C(=O)OC)C2C(=O)C3C(C(=O)OC)C(C(=O)OC)C3C(=O)C12 (configuration not stated) | > 100 | > 100 | > 100 | > 100 |  | > 100 | > 100 |  | > 100 |  |  |  |  |  |  |  |  |  |  | 
11 | O=C(NC12CC3CCC1CC(C3)C2)[C@@H]1CCCN1C(=O)OCc1ccccc1 (some centres not stated) | > 100 | > 100 | > 100 | > 100 | > 100 | > 100 | > 100 | 97.2 | > 100 |  |  |  |  |  |  |  |  |  |  | 
12 | O=C1NC(=O)c2c1n(Cc1ccccc1)c(=O)n2Cc1ccccc1 | > 100 | > 100 | > 100 | > 100 | > 100 | > 100 | > 100 | > 100 | > 100 |  |  |  |  |  |  |  |  |  |  | 
13 | Cc1nc(N)nc(CCC(=O)Nc2cccc(C(F)(F)F)c2)c1-c1ccc(Cl)cc1 | > 100 | > 100 | > 100 | > 100 | > 100 | > 100 | > 100 | > 100 | > 100 |  |  |  |  |  |  |  |  |  |  | 
14 | COc1cc([C@@H]2c3cc4c(cc3[C@@H](NC(=O)c3ccc(C#N)cc3)C3COC(=O)[C@@H]32)OCO4)cc(OC)c1O (some centres not stated) | > 100 | 2.59 | 12.4 | 2.39 | 11.7 | 1.66 | 16.8 | 5.49 | 20.1 |  |  |  |  |  |  |  |  |  |  | 
15 | O=[N+]([O-])c1cccc(C2=NN(c3ccccc3)C3c4cc(Br)ccc4OCC23)c1 (configuration not stated) | > 100 | > 100 | > 100 | > 100 | > 100 | > 100 | > 100 | > 100 | > 100 |  |  |  |  |  |  |  |  |  |  | 
16 | COc1ccc(C(=O)c2cc(OC)c(OC)c(OC)c2OC)cc1O |  | > 100 | > 100 | 7.44 |  | 8.96 | > 100 | 5.77 | > 100 |  | 4.49 | 4.56 | 2.37 |  | 3.05 | 6.42 | 1.69 | 4.75 | 1.97 | 7.09
17 | CCCCCOc1ccc(/C=N/Nc2cc(C)nc3ccc(Cl)cc23)cc1 | 2.27 | 3.39 | 3.36 | 3.08 |  | 3.3 | 3.09 | 3.22 | 3.27 | 0.691 | 1.85 | 1.65 | 1.63 |  | 1.86 | 1.69 | 1.63 | 1.72 | 1.89 | 3.92
18 | CC(=O)O[C@H]1C(=O)[C@@]2(C)C([C@H](OC(=O)c3ccccc3)[C@]3(O)C[C@H](OC(=O)[C@H](O)[C@@H](NC(=O)c4ccccc4)c4ccccc4)C(C)=C1C3(C)C)[C@]1(OC(C)=O)CO[C@@H]1C[C@@H]2O (some centres not stated) | > 50 |  | > 37.2 | 0.0146 | > 50 | > 50 | > 50 | 0.0186 | > 50 | 0.00596 |  | 0.0152 |  | < 0.005 | 0.00872 | 0.0139 | < 0.005 | > 50 | 1.81 | 41.9

From PubChem BioAssay (NCI)
